Laboratory results reported in paper PMC7472354, “Enhanced Antimicrobial Activity of N-Terminal Derivatives of a Novel Brevinin-1 Peptide from The Skin Secretion of Odorrana schmackeri” (Toxins, 2020).
Where a SMILES comes first, the peptide text is derived from it.

Tests used:
Assay type in all cases: cell-based
[1] = tested on: Methicillin-resistant Staphylococcus aureus (MRSA, ATCC 12493)
Procedure: (§1) The minimal inhibitory concentrations (MICs) and minimum bactericidal concentrations (MBCs) were evaluated to determine the antimicrobial activity of synthetic peptides. The microorganisms employed in the study are two kinds of Gram-negative bacteria, Escherichia coli (NCTC 10418) and Pseudomonas aeruginosa (ATCC 27853), three kinds of Gram-positive bacteria, Staphylococcus aureus (NCTC 10788), Methicillin-resistant Staphylococcus aureus (MRSA, ATCC 12493) and Enterococcus faecalis (NCTC 12697) and a yeast, Candida albicans (NCPF 1467), as indicated previously. […] The sterilised broth medium was used as the positive control and the microorganism cultured in the medium only was treated as the negative control. […] The MBC results were defined as the lowest bactericidal concentrations of peptide. The antimicrobial activity of peptides was tested by monitoring the absorbance at 550 nm using an ELISA plate reader (Biolise BioTek EL808, Winooski, VT, USA).

[2] = tested on: Enterococcus faecalis (NCTC 12697)
Procedure: as §1

[3] = tested on: Candida albicans (NCPF 1467)
Procedure: as §1

[4] = tested on: Pseudomonas aeruginosa (ATCC 27853)
Procedure: as §1

[5] = tested on: Escherichia coli (NCTC 10418)
Procedure: as §1

[6] = tested on: Staphylococcus aureus (NCTC 10788)
Procedure: as §1

CC[C@H](C)[C@H](NC(=O)[C@@H](NC(=O)CNC(=O)[C@@H]1CCCN1C(=O)[C@@H](NC(=O)[C@@H](NC(=O)[C@H](CC(N)=O)NC(=O)[C@H](C)NC(=O)[C@H](C)NC(=O)[C@@H](NC(=O)[C@H](CCCCN)NC(=O)[C@H](CC(C)C)NC(=O)[C@@H](NC(=O)CNC(=O)[C@@H]1CCCN1C(=O)[C@H](CC(C)C)NC(=O)[C@@H](N)Cc1ccccc1)[C@@H](C)CC)C(C)C)C(C)C)C(C)C)C(C)C)C(=O)O [OSa] (H-FLPGILKVAANVVPGVI-OH)
> 512 µM: MBC ([1]; ATCC 12493, 18 h) | MIC ([1]; ATCC 12493, 24 h) | MBC ([2]; NCTC 12697, 18 h) | MIC ([2]; NCTC 12697, 24 h) | MBC ([3]; NCPF 1467, 18 h) | MIC ([3]; NCPF 1467, 24 h) | MBC ([4]; ATCC 27853, 18 h) | MIC ([4]; ATCC 27853, 24 h) | MBC ([5]; NCTC 10418, 18 h) | MIC ([5]; NCTC 10418, 24 h) | MBC ([6]; NCTC 10788, 18 h) | MIC ([6]; NCTC 10788, 24 h)
